{"source": "paper PMC11201590", "about": "“Enhancing Selective Antimicrobial and Antibiofilm Activities of Melittin through 6-Aminohexanoic Acid Substitution” (Biomolecules, 2024)", "key": {"MRSA": {"tested_on": "MRSA", "format": "cell-based, Staphylococcus aureus", "description": "(§1) We assessed the antibiofilm activity of the peptides by determining their minimum biofilm eradication concentration (MBEC) and minimum biofilm inhibition concentration (MBIC) against drug-resistant bacteria, including MDRPA and MRSA, as previously described. A 96-well plate containing a subculture of 1 × 10^6 CFU/200 μL of bacteria was incubated overnight at 37 °C with or without peptides to test for biofilm inhibition and eradication. The untreated culture served as the negative control, and LL-37 was used as the control peptide."}, "MDRPA": {"tested_on": "MDRPA", "format": "cell-based, Pseudomonas aeruginosa", "description": "as §1"}, "[1]": {"tested_on": "S. epidermidis (KCTC 1917)", "format": "cell-based, Staphylococcus epidermidis", "conditions": "CLSI broth dilution, MHB, 37 °C, 18 to 24 h", "description": "(§2) Peptides were assessed for their antibacterial activity against four Gram-positive and four Gram-negative bacteria, including drug-resistant strains, in accordance with Clinical and Laboratory Standards Institute (CLSI) guidelines. The minimum inhibitory concentration (MIC) was determined using a microtiter broth dilution method. All bacterial strains were incubated overnight at 37 °C. Cultured bacteria were then diluted 10-fold in Muller–Hinton Broth (MHB) medium (Difco, Detroit, MI, USA) and incubated for 3 h to reach mid-log phase. Following the establishment of mid-log phase cultures, bacteria were inoculated into sterile 96-well plates containing serially diluted peptides. The MIC was defined as the lowest concentration of peptides that prevented observable turbidity after incubation of the plates at 37 °C for 18 to 24 h."}, "[2]": {"tested_on": "four Gram-positive and four Gram-negative bacteria", "format": "cell-based", "conditions": "over the eight strains of Table 2", "description": "as §2"}, "[3]": {"tested_on": "RAW 264.7 macrophage cells", "experiment": "Cytotoxicity, MTT assay", "format": "cell-based, mouse", "conditions": "4 µM peptide, RAW 264.7, 48 h, triplicate", "description": "We conducted the MTT assay (3-(4,5-dimethylthiazol-2-yl)-2,5-diphenyltetrazolium bromide) dye reduction experiment against RAW 264.7 macrophage cells to evaluate the cytotoxicity of the peptides, following previously published methods. RAW 264.7 cells were cultured for 24 h in the presence of 5% CO2 at 37 °C after seeding them in 96-well plates (2 × 10^4 cells/well). Subsequently, the peptides were treated at increasing concentrations and allowed to interact with the cells for 48 h. Following the incubation period, 20 μL of MTT solution (5 mg/mL in PBS) was added to each well, and the plate was further incubated at 37 °C for 4 h. The absorbance was then measured at 550 nm using a microplate ELISA reader after dissolving the formazan crystals in dimethyl sulfoxide (DMSO). Treatment with 0.1% Triton X-100 served as a positive control for 100% cytotoxicity. Each experiment was performed in triplicate."}, "S. aureus": {"tested_on": "S. aureus", "experiment": "SYTOX green uptake assay", "format": "cell-based, Staphylococcus aureus", "conditions": "negative control", "description": "The SYTOX green experiment was utilized to assess the impact of peptides on bacterial membrane permeabilization. S. aureus cells in the mid-log phase (OD600 = 0.5) were washed three times in a buffer containing 20 mM glucose and 5 mM HEPES (pH 7.4). Subsequently, the bacterial cell suspensions were diluted in a buffer consisting of 5 mM HEPES, 100 mM KCl, and 20 mM glucose, at pH 7.4, to a concentration of 1 × 10^6 CFU/mL. After incubating for fifteen minutes in complete darkness, 0.5 μM SYTOX green was added to the bacterial suspensions. The Shimadzu fluorescence spectrophotometer RF-5300PC (Shimadzu Scientific Instruments, Kyoto, Japan) was employed to monitor SYTOX green fluorescence following the addition of peptides at a concentration of 2 × MIC. In the Shimadzu fluorescence spectrophotometer, the excitation and emission wavelengths were set at 485 nm and 520 nm, respectively."}, "E. coli (KCTC 1682)": {"tested_on": "E. coli (KCTC 1682)", "experiment": "Outer membrane permeability (NPN uptake)", "format": "cell-based, Escherichia coli", "conditions": "varying peptide concentrations; NPN fluorescence", "description": "The fluorescent probe NPN (1-N-phenylnaphthylamine) was utilized to measure the outer membrane permeability of Gram-negative E. coli. Mid-log phase E. coli cells were diluted to an OD600 of 0.05 after being washed three times in a buffer containing 5 mM HEPES, 20 mM glucose, and 5 mM KCN at pH 7.4. A 1 mM stock solution of NPN was prepared by dissolving NPN in acetone. To achieve a final concentration of 10 µM, 30 μL of the stock solution was added to the bacterial suspension. […] Fluorescence was then measured over time after the peptides were added, with the concentration increasing until it reached a steady state. ONPG (o-nitrophenyl-β-[…]), a […] substrate used for cytoplasmic membrane β-galactosidase enzyme, was employed to assess the release of β-galactosidase from E. coli ML-35, aiming to determine the inner membrane permeability of peptides. A 1.5 mM solution of ONPG was added to a sample buffer consisting of 10 mM sodium phosphate and 100 mM NaCl at pH 7.4, which was used to suspend mid-log phase E. coli ML-35 bacteria to an OD600 of 0.5. […] The fluorescence of ONPG increases when it is hydrolyzed to form o-nitrophenol. The permeability of the inner membrane of E. coli ML-35 bacteria was assessed by the influx of ONPG, a substance that was then broken down into o-nitrophenol, forming a yellow product, by the presence of β-galactosidase in the cytoplasm."}, "[4]": {"conditions": "8 to 16 µM, sentence does not tell MRSA and MDRPA apart"}}, "note": "Like-named read-outs stand apart in the source and are kept apart here."}
{"compound": "CC[C@H](C)[C@H](NC(=O)[C@H](CCCCN)NC(=O)[C@H](CCC(=O)O)NC(=O)[C@H](CCCCN)NC(=O)[C@H](CO)NC(=O)[C@H](CCCCN)NC(=O)[C@H](CCCNC(=N)N)NC(=O)[C@H](Cc1ccccc1)NC(=O)[C@H](Cc1ccccc1)NC(=O)[C@H](CC(=O)O)NC(=O)CNC(=O)[C@H](CC(C)C)NC(=O)[C@@H](N)CC(C)C)C(=O)NCC(=O)N[C@@H](CCCCN)C(=O)N[C@@H](CCC(=O)O)C(=O)N[C@@H](Cc1ccccc1)C(=O)N[C@@H](CCCCN)C(=O)N[C@@H](CCCNC(=N)N)C(=O)N[C@H](C(=O)N[C@H](C(=O)N[C@@H](CCC(N)=O)C(=O)N[C@@H](CCCNC(=N)N)C(=O)N[C@H](C(=O)N[C@@H](CCCCN)C(=O)N[C@@H](CC(=O)O)C(=O)N[C@@H](Cc1ccccc1)C(=O)N[C@@H](CC(C)C)C(=O)N[C@@H](CCCNC(=N)N)C(=O)N[C@@H](CC(N)=O)C(=O)N[C@@H](CC(C)C)C(=O)N[C@H](C(=O)N1CCC[C@H]1C(=O)N[C@@H](CCCNC(=N)N)C(=O)N[C@H](C(=O)N[C@@H](CCC(=O)O)C(=O)N[C@@H](CO)C(=O)O)[C@@H](C)O)C(C)C)[C@@H](C)CC)C(C)C)[C@@H](C)CC", "note": "[LL-37]", "values": [{"measurement": "inhibition of biofilm formation", "setting": "MRSA; [4]", "value": "approximately 50%"}, {"measurement": "inhibition of biofilm formation", "setting": "MDRPA; [4]", "value": "approximately 50%"}]}
{"compound": "CC[C@H](C)[C@H](NC(=O)CN)C(=O)NCC(=O)N[C@@H](C)C(=O)N[C@H](C(=O)N[C@@H](CC(C)C)C(=O)N[C@@H](CCCCN)C(=O)N[C@H](C(=O)N[C@@H](CC(C)C)C(=O)N[C@H](C(=O)N[C@H](C(=O)NCC(=O)N[C@@H](CC(C)C)C(=O)N1CCC[C@H]1C(=O)N[C@@H](C)C(=O)N[C@@H](CC(C)C)C(=O)N[C@H](C(=O)N[C@@H](CO)C(=O)N[C@@H](Cc1c[nH]c2ccccc12)C(=O)N[C@H](C(=O)N[C@@H](CCCCN)C(=O)N[C@@H](CCCNC(=N)N)C(=O)N[C@@H](CCCCN)C(=O)N[C@@H](CCCNC(=N)N)C(=O)N[C@@H](CCC(N)=O)C(=O)N[C@@H](CCC(N)=O)C(N)=O)[C@@H](C)CC)[C@@H](C)CC)[C@@H](C)O)[C@@H](C)O)C(C)C)C(C)C", "note": "[Melittin]", "values": [{"measurement": "MIC", "setting": "[1]", "value": 8, "unit": "µM"}, {"measurement": "GM, geometric mean of the MIC", "setting": "[2]", "value": 10.5, "unit": "µM"}, {"measurement": "cell survival rate", "setting": "[3]", "value": "less than 10%"}, {"measurement": "inhibition of biofilm formation", "setting": "MRSA; MRSA, 4 µM peptide", "value": "~90", "unit": "%"}, {"measurement": "inhibition of biofilm formation", "setting": "MDRPA; MDRPA, 8 µM peptide", "value": "~90", "unit": "%"}]}
{"compound": "Buforin-2", "values": [{"measurement": "effect on SYTOX green fluorescence intensity", "setting": "S. aureus", "value": "did not affect fluorescence intensity"}, {"measurement": "outer membrane permeability", "setting": "E. coli (KCTC 1682)", "value": "No appreciable outer membrane permeability"}]}
